Measured values reported in US10456407B2, “Combination therapy for treating cancer” (Epizyme, Inc., priority 2015, dated 2019).

System: WSU-DLCL2 cells
Assay: RT2 Glucocorticoid signaling PCR array, WSU-DLCL2 (WSU) cell line (Table 4c)
Format: cell-based

For `CCN(c1cc(-c2ccc(CN3CCOCC3)cc2)cc(C(=O)NCc2c(C)cc(C)[nH]c2=O)c1C)C1CCOCC1` [Compound 44], the “Ct Values, MERTK” value (gene MERTK) was 31.323, the “ΔCT (B2M), MERTK” value (gene MERTK) was 11.638 and the “Ct Values, MT2A” value (gene MT2A) was 23.499. The “ΔCT (B2M), MT2A” value (gene MT2A) was 3.814, the “ΔΔCT, MT2A” value (gene MT2A, compared to DMSO) was −1.453 and the “Ct Values, NFKBIA” value (gene NFKBIA) was 23.807. The “ΔCT (B2M), NFKBIA” value (gene NFKBIA) was 4.122, the “ΔΔCT, NFKBIA” value (gene NFKBIA, compared to DMSO) was 1.201 and the “Ct Values, NR3C1” value (gene NR3C1) was 23.121. For the same molecule, the “ΔCT (B2M), NR3C1” value (gene NR3C1) was 3.436, the “ΔΔCT, NR3C1” value (gene NR3C1, compared to DMSO) was −0.364 and the “Ct Values, PDCD7” value (gene PDCD7) was 24.740. For the same molecule, the “ΔCT (B2M), PDCD7” value (gene PDCD7) was 5.055, the “ΔΔCT, PDCD7” value (gene PDCD7, compared to DMSO) was 0.326 and the “Ct Values, PDP1” value (gene PDP1) was 25.226. The “ΔCT (B2M), PDP1” value (gene PDP1) was 5.541, the “ΔΔCT, PDP1” value (gene PDP1, compared to DMSO) was −0.380 and the “Ct Values, PER1” value (gene PER1) was 25.820. For the same molecule, the “ΔCT (B2M), PER1” value (gene PER1) was 6.135, the “ΔΔCT, PER1” value (gene PER1, compared to DMSO) was 0.476 and the “Ct Values, PER2” value (gene PER2) was 24.837. For the same molecule, the “ΔCT (B2M), PER2” value (gene PER2) was 5.152, the “ΔΔCT, PER2” value (gene PER2, compared to DMSO) was 0.151 and the “Ct Values, PIK3R1” value (gene PIK3R1) was 24.332. For the same molecule, the “ΔCT (B2M), PIK3R1” value (gene PIK3R1) was 4.647, the “ΔΔCT, PIK3R1” value (gene PIK3R1, compared to DMSO) was 0.363 and the “Ct Values, PLEKHF1” value (gene PLEKHF1) was 28.660. The “ΔCT (B2M), PLEKHF1” value (gene PLEKHF1) was 8.975, the “ΔΔCT, PLEKHF1” value (gene PLEKHF1, compared to DMSO) was 1.220 and the “Ct Values, POU2F1” value (gene POU2F1) was 24.671. For the same molecule, the “ΔCT (B2M), POU2F1” value (gene POU2F1) was 4.986, the “ΔΔCT, POU2F1” value (gene POU2F1, compared to DMSO) was 0.202 and the “Ct Values, POU2F2” value (gene POU2F2) was 22.678. The “ΔCT (B2M), POU2F2” value (gene POU2F2) was 2.993, the “ΔΔCT, POU2F2” value (gene POU2F2, compared to DMSO) was −0.680 and the “Ct Values, RASA3” value (gene RASA3) was 23.208. For the same molecule, the “ΔCT (B2M), RASA3” value (gene RASA3) was 3.523, the “ΔΔCT, RASA3” value (gene RASA3, compared to DMSO) was −0.979 and the “Ct Values, RGS2” value (gene RGS2) was 24.869. For the same molecule, the “ΔCT (B2M), RGS2” value (gene RGS2) was 5.184, the “ΔΔCT, RGS2” value (gene RGS2, compared to DMSO) was 1.732 and the “Ct Values, RHO8” value (gene RHO8) was 27.234. The “ΔCT (B2M), RHO8” value (gene RHO8) was 7.549, the “ΔΔCT, RHO8” value (gene RHO8, compared to DMSO) was −2.725 and the “Ct Values, RPLP0” value (gene RPLP0) was 15.651. The “ΔCT (B2M), RPLP0” value (gene RPLP0) was −4.004, the “Ct Values, SESN1” value (gene SESN1) was 25.215 and the “ΔCT (B2M), SESN1” value (gene SESN1) was 5.530. The “ΔΔCT, SESN1” value (gene SESN1, compared to DMSO) was −3.709, the “Ct Values, SGK1” value (gene SGK1) was 28.624 and the “ΔCT (B2M), SGK1” value (gene SGK1) was 8.939. For the same molecule, the “ΔΔCT, SGK1” value (gene SGK1, compared to DMSO) was 2.810, the “Ct Values, SLC10A6” value (gene SLC10A6) was 35.684 and the “ΔCT (B2M), SLC10A6” value (gene SLC10A6) was 15.999. The “ΔΔCT, SLC10A6” value (gene SLC10A6, compared to DMSO) was −1.168, the “Ct Values, SLC19A2” value (gene SLC19A2) was 26.125 and the “ΔCT (B2M), SLC19A2” value (gene SLC19A2) was 6.440. For the same molecule, the “ΔΔCT, SLC19A2” value (gene SLC19A2, compared to DMSO) was −0.748, the “Ct Values, SLC22A5” value (gene SLC22A5) was 26.640 and the “ΔCT (B2M), SLC22A5” value (gene SLC22A5) was 6.995. For the same molecule, the “ΔΔCT, SLC22A5” value (gene SLC22A5, compared to DMSO) was −2.496, the “Ct Values, SNTA1” value (gene SNTA1) was 24.181 and the “ΔCT (B2M), SNTA1” value (gene SNTA1) was 4.496. The “ΔΔCT, SNTA1” value (gene SNTA1, compared to DMSO) was −0.492, the “Ct Values, SPHK1” value (gene SPHK1) was 29.333 and the “ΔCT (B2M), SPHK1” value (gene SPHK1) was 9.648. For the same molecule, the “ΔΔCT, SPHK1” value (gene SPHK1, compared to DMSO) was −0.545, the “Ct Values, SPSB1” value (gene SPSB1) was 26.952 and the “ΔCT (B2M), SPSB1” value (gene SPSB1) was 7.267. For the same molecule, the “ΔΔCT, SPSB1” value (gene SPSB1, compared to DMSO) was −2.896, the “Ct Values, STAT5A” value (gene STAT5A) was 25.495 and the “ΔCT (B2M), STAT5A” value (gene STAT5A) was 5.810. The “ΔΔCT, STAT5A” value (gene STAT5A, compared to DMSO) was −0.307, the “Ct Values, STAT5B” value (gene STAT5B) was 23.453 and the “ΔCT (B2M), STAT5B” value (gene STAT5B) was 3.768. For the same molecule, the “ΔΔCT, STAT5B” value (gene STAT5B, compared to DMSO) was −0.196, the “Ct Values, TBL1XR1” value (gene TBL1XR1) was 22.111 and the “ΔCT (B2M), TBL1XR1” value (gene TBL1XR1) was 2.426. The “ΔΔCT, TBL1XR1” value (gene TBL1XR1, compared to DMSO) was 0.274, the “Ct Values, TNF” value (gene TNF) was 25.079 and the “ΔCT (B2M), TNF” value (gene TNF) was 5.394. For the same molecule, the “ΔΔCT, TNF” value (gene TNF, compared to DMSO) was 1.150, the “Ct Values, TNFAIP3” value (gene TNFAIP3) was 26.903 and the “ΔCT (B2M), TNFAIP3” value (gene TNFAIP3) was 7.218. The “ΔΔCT, TNFAIP3” value (gene TNFAIP3, compared to DMSO) was 1.722, the “Ct Values, TSC22D3” value (gene TSC22D3) was 25.390 and the “ΔCT (B2M), TSC22D3” value (gene TSC22D3) was 5.705. For the same molecule, the “ΔΔCT, TSC22D3” value (gene TSC22D3, compared to DMSO) was −0.359, the “Ct Values, USP2” value (gene USP2) was 21.903 and the “ΔCT (B2M), USP2” value (gene USP2) was 2.218. For the same molecule, the “ΔΔCT, USP2” value (gene USP2, compared to DMSO) was −0.978, the “Ct Values, USPS4” value (gene USPS4) was 26.807 and the “ΔCT (B2M), USPS4” value (gene USPS4) was 7.122. The “ΔΔCT, USPS4” value (gene USPS4, compared to DMSO) was 0.023, the “Ct Values, VDR” value (gene VDR) was 27.293 and the “ΔCT (B2M), VDR” value (gene VDR) was 7.608. For the same molecule, the “ΔΔCT, VDR” value (gene VDR, compared to DMSO) was −3.044, the “Ct Values, VLDLR” value (gene VLDLR) was 32.346 and the “ΔCT (B2M), VLDLR” value (gene VLDLR) was 12.661. The “ΔΔCT, VLDLR” value (gene VLDLR, compared to DMSO) was 3.859, the “Ct Values, ZFP36” value (gene ZFP36) was 25.541 and the “ΔCT (B2M), ZFP36” value (gene ZFP36) was 5.856. For the same molecule, the “ΔΔCT, ZFP36” value (gene ZFP36, compared to DMSO) was 0.939, the “Ct Values, ZHX3” value (gene ZHX3) was 24.831 and the “ΔCT (B2M), ZHX3” value (gene ZHX3) was 5.146. The “ΔΔCT, ZHX3” value (gene ZHX3, compared to DMSO) was −1.178, the “Ct Values, ZNF281” value (gene ZNF281) was 23.913 and the “ΔCT (B2M), ZNF281” value (gene ZNF281) was 4.228. For the same molecule, the “ΔΔCT, ZNF281” value (gene ZNF281, compared to DMSO) was −0.329.
